Values quoted from earlier work as cited in patent US8236821B2, “Substituted N-phenyl-5-phenyl-pyrazolin-3-yl amides as cannabinoid receptor antagonists/inverse agonists useful for treating obesity” (Jenrin Discovery, Inc., priority 2008, dated 2012).

Settings: type 2 diabetes patients not treated with other anti-diabetic medications; six months of treatment; baseline value 7.9; placebo reduction 0.3%

Cc1c(C(=O)NN2CCCCC2)nn(-c2ccc(Cl)cc2Cl)c1-c1ccc(Cl)cc1 [rimonabant]
HbA1c levels lowered: 0.8%
